The values below come from patent publication US20170168056A1, “METHODS AND COMPOSITIONS FOR DETECTING AND MODULATING CANCER CELLS” (Massachusetts Institute of Technology, priority 2015, published 2017).

Molecules are shown by their SMILES.

For assay [1], the system named is human breast cancer cell lines. As to the kind of experiment: Cell viability (Taxol/paclitaxel efficacy) across a panel of breast cancer cell lines versus endogenous Mena expression. The conditions noted are these: 9 breast cancer cell lines, 72 h treatment. The assay is classed as cell-based. The text has this: Endogenous levels of Mena in breast cancer cell lines correlate with their resistance to Taxol treatment. Initial experiments relied on ectopic expression in a single cell line, we examined a panel breast cancer cell lines with differing levels of endogenous Mena expression for sensitivity to Taxol. […] Essentially, low endogenous Mena correlates with low resistance/reduced viability in Taxol treated cells, while high endogenous Mena correlates with high resistance/viability in Taxol treated cells (FIG. 1F).
Cell viability assay. […] All measurements were repeated in triplicate.
MENA and MENA^INV are associated with increased survival during paclitaxel treatment in vitro. Whether endogenous MENA and MENA^INV expression levels were associated with paclitaxel resistance was examined. MENA and MENA^INV were determined to be widely expressed in all main breast cancer subtypes, as measured by mRNA from TCGA samples, as well as at the protein level by immunohistochemistry (FIGS. 28A, 28B, 28C), with slightly higher expression in patients with Her2+ breast cancer. […] Under the conditions we used, MENA11a co-migrates with the 80 kDa MENA, thus the intensity of the measured the 80 kDa MENA, detected with an antibody known to recognize all MENA isoforms, represents the total amount of 80 kDa MENA plus MENA11a in the cell lines that express both isoforms. […]

Another assay concerns microtubules (MT). The experiment in a line: Immunofluorescence ratio of Glu-MT (stable) to Tyr-MT (dynamic). The assay is classed as cell-based, human. How it is done:
Immunofluorescence. Glass bottom dishes (Mattek) were coated with Collagen at 0.1 mg/mL diluted in PBS and 50 μg/mL FN for 1 hour at 37° C. Cells were plated for 1 hour, and then treated with paclitaxel alone or in combination with MEKi for 24 hours. Cells were fixed for 20 minutes in 4% paraformaldehyde in PHEM buffer with 0.1% Gluteraldehyde, and then quenched with sodium borohydrate for 5 minutes. Cells were blocked with 2% BSA in TBS-0.1%TritonX-100 for 30 minutes, and incubated with primary antibodies and then secondary antibodies for 1 hour each, at room temperature. Z series of images were taken on an Applied Precision DeltaVision microscope using Softworx acquisition, an Olympus 60×1.4 NA plan apo objective and a Photometrics CoolSNAP HQ camera. Images were deconvolved using Deltavision Softworx software and objective specific point spread function. Images were analyzed with ImageJ, where the whole cell intensity levels of Tyr- or Glu-MT was measured. Images are pooled from at least 3 independent experiments.
Paclitaxel promotes cell death by increasing the stability of MTs, and pathways driving increased MT dynamics are known to promote resistance to taxanes. Therefore, MT structure and dynamics in MENA isoform expressing cells was examined during paclitaxel treatment. […] Post-translational modification of MTs can regulate their dynamics, and antibodies that detect such modifications can be used to infer the relative dynamics of MT populations; in particular, MT tyrosination indicates a dynamic MT state, while de-tyrosination of MTs is associated with increased stability. The relative abundance of stable (Glu-MT) vs. dynamic (Tyr-MT) MTs was measured in individual cells by immunofluorescence with anti-Glu-MT and anti-Tyr-MT antibodies (FIGS. 37A, 37B).
The MAPK signaling cascade is among the key pathways known to interact with MTs. Both ERK1/2 interact with MTs; MT stabilization by paclitaxel increases ERK phosphorylation and, in turn, ERK pathway activation increases MT dynamics.

Regarding `CC(=O)O[C@H]1C(=O)[C@@]2(C)[C@H]([C@H](OC(=O)c3ccccc3)[C@]3(O)C[C@H](OC(=O)[C@H](O)[C@@H](NC(=O)c4ccccc4)c4ccccc4)C(C)=C1C3(C)C)[C@]1(OC(C)=O)CO[C@@H]1C[C@@H]2O` [paclitaxel], the “correlation between drug efficacy (cell survival) and endogenous Mena expression” value is “significant inverse correlation” in assay [1] and “highly significant anti-correlation” in assay [1] (listed as Taxol). The “relative ratio of stable (Glu-MT) to dynamic (Tyr-MT) MTs” value in the assay on microtubules (MT) (231-Control cells, 10 nM paclitaxel 24 hours) was “significant increase”. Also, the “relative levels of stable to dynamic MTs” value with microtubules (MT) (231-MENA and 231-MENA^INV cells, 10 nM paclitaxel 24 hours) is given as “no change”. Moreover, the “stable MTs relative to dynamic MTs, either drug alone” value with microtubules (MT) (231-MENA^INV cells, single drug, 24 hours) is “had no effect”.
